Haemolysis and inhibition data for 20 molecules are collected here from PubChem BioAssay AID2061108 (Research group of Professor Matthew Todd, School of …, 2025).

For orientation: inhibition means the relative decrease from the control value, in per cent.

Active and inactive are the calls of the source. No rule for the calls is given here.

What all share (experiment): microbial growth inhibition plus red cell haemolysis – Idler compounds, first plate, PMBN-permeabilized strains, profiling panel (AID 2061108)
What all share (set-up): haemolysis: dose or concentration left out as unconfirmed

Assay [1] has as its system red blood cell haemolysis. The settings on record: stronger effect = higher value; dose or concentration not given here.
The test system of assay [2] is S. aureus ATCC 9144 growth inhibition, 100 uM. Particulars: S. aureus ATCC 9144 growth inhibition; at 100 µM; stronger effect = higher value.
Assay [3] deals with M. avium growth inhibition, 10 uM. Particulars: M. avium growth inhibition, 10 µM.
Assay [4] has as its system A. baumannii ATCC 17978 + PMBN growth inhibition, 100 uM. Particulars: A. baumannii plus PMBN growth inhibition, 100 µM; stronger effect = higher value.
The subject of assay [5] is A. baumannii ATCC 17978 growth inhibition, 100 uM. The settings on record: S. aureus ATCC 9144 growth inhibition; measured here: A. baumannii ATCC 17978; at 100 µM; stronger effect = higher value.
Assay [6] has as its system E. coli NCTC 12923 + PMBN growth inhibition, 100 uM. Particulars: S. aureus ATCC 9144 growth inhibition; measured here: E. coli plus PMBN; at 100 µM; stronger effect = higher value.
In assay [7] the test system is E. coli NCTC 12923 growth inhibition, 100 uM. The settings on record: E. coli NCTC 12923 growth inhibition, 100 µM; stronger effect = higher value.
The test system of assay [8] is C. albicans NCPF 3281 growth inhibition, 100 uM. The settings on record: S. aureus ATCC 9144 growth inhibition; measured here: C. albicans NCPF 3281; at 100 µM; stronger effect = higher value.
For assay [9], the system named is M. abscessus growth inhibition, 10 uM. The settings on record: S. aureus ATCC 9144 growth inhibition; measured here: M. abscessus; at 10 µM.

Turning to `COC(=O)c1ccc(C2CN(c3ccnc(S(=O)(=O)F)c3)C2)nc1`, the haemolysis in assay [1] is -0.16%. For the same molecule, the inhibition in [2] is 16.7% (inactive); in [3], 0.0988%; in [4], 22.5%; in assay [5], 0.357%; in [6] it was 11.4%; in [7], 1.62%. For the same molecule, the inhibition is -28.7% in [8] and -1.03% in assay [9].

In the case of `COc1cc2nc(N3CCC(N(C)C)C3)nc(N3CCN(C(=O)OC(C)(C)C)CC3)c2cc1OC` (stereo not given), the haemolysis in assay [1] turned out to be 0.172%. Further, the inhibition in assay [2] was 7.89% (inactive); in [3], 3.78%; in assay [4], 29.6%; in [5] it was -7.35%; in [6], 10.1%; in assay [7], 2.57%. The results for the inhibition in assay [8] and in assay [9] were -73.8% and -0.0588%, respectively.

As for `Nc1ncnc2cc(-c3cccc(S(N)(=O)=O)c3)sc12`, the haemolysis in [1] is -0.345%. Besides, the inhibition was 27.3% in assay [2]; 50.5% in assay [3]; -11.6% in assay [4]; -9.52% in assay [5]; 91.6% in assay [6]; 1.22% in assay [7]. Besides, the figures for the inhibition in [8] and in [9] were -67.9% and 0.72%, respectively.

For `O=c1[nH]c(=O)c2cc(S(=O)(=O)Nc3cc(F)c(N4CCN(c5ccccn5)CC4)c(F)c3)ccc2[nH]1`, in assay [1], the haemolysis came out at 0.458%. Further, the inhibition in [2] is 10.2% (inactive); in assay [3], 1.7%; in assay [4], 24%; in assay [5], 4.58%; in assay [6], 9.51%; in assay [7] it was 0.946%. The inhibition in assay [8] was -115%; in assay [9], -0.0939%.

Consider `CC(C)c1conc1CNc1ccnc(S(=O)(=O)F)c1`, for which the haemolysis in [1] was -0.292%. Moreover, the inhibition in assay [2] was 16.8% (inactive); in assay [3], 0.196%; in assay [4], 13%; in assay [5], -0.119%; in assay [6], -0.37%; in assay [7] it was -1.22%. Besides, the figures for the inhibition in assay [8] and in [9] were 11.6% and -1.22%, respectively.

In the case of `CC(C)C(N)C(=O)NS(=O)(=O)c1cccc(-c2cc3ncnc(N)c3s2)c1` (stereo not given), in [1], the haemolysis was found to be 0.218%. Further, the inhibition in assay [2] was -22.3% (inactive); in assay [3], 16.2%; in assay [4], -10.9%; in assay [5], -15.1%; in assay [6] it was -17.2%; in assay [7], -28.5%. Besides, the inhibition is -123% in assay [8] and -0.361% in assay [9].

On to `COc1cc(OC)cc(C2(NC(=O)c3ccc(N4CCOCC4)cc3)COC2)c1`, for which the haemolysis in assay [1] is -0.148%. Further, the inhibition in assay [2] was 11.7% (inactive); in assay [3], -0.0617%; in [4] it was 19.4%; in assay [5], 2.38%; in [6] it was 0.123%; in [7], 0.541%. Besides, the inhibition in [8] is -72%; in assay [9], -0.558%.

Take `COc1cc2nc(Nc3cc(C)[nH]n3)nc(Nc3cc(C)[nH]n3)c2cc1OC`: in assay [1], the haemolysis stood at 0.208%. Moreover, the inhibition in assay [2] was 37.5%; in assay [3], 1.15%; in assay [4] it was 19.6%; in assay [5], 18.8%; in [6], 49.1%; in assay [7], 12.7%. For the same molecule, the inhibition came out at 84.2% in assay [8] and 0.769% in assay [9].

For `CCn1c(SCC(=O)N(C)c2ccccc2)nnc1-c1cn(C)nc1OC`, in assay [1], the haemolysis was 0.564%. Also, the inhibition is -11.4% (inactive) in [2]; -1.26% in [3]; 4.29% in [4]; -2.53% in [5]; -23.5% in assay [6]; -41.1% in [7]. The inhibition was 8.04% in assay [8] and 0.00036% in [9].

Regarding `CC(C)c1cc(Nc2nc(N[C@@H](CO)C3CCCCC3)nc3[nH]ncc23)n[nH]1`, the haemolysis in [1] was found to be 1.61%. For the same molecule, the inhibition in [2] is -3.86%; in [3] it was 0.54%; in assay [4] it was 57.6%; in assay [5], -4.22%; in assay [6], 99.1%; in assay [7] it was -18.2%. Also, the figures for the inhibition in assay [8] and in assay [9] were -64% and -0.415%, respectively.

With `CC(=O)NCCC(=O)NNC(=O)c1cc(-c2ccccn2)nc2ccccc12`, the haemolysis in assay [1] amounted to 0.542%. The inhibition in [2] is -6.67% (inactive); in [3], -0.099%; in [4], 4.14%; in assay [5] it was -4.58%; in assay [6] it was -9.76%; in assay [7], -5.54%. Besides, the inhibition in assay [8] is -14.4%; in assay [9], -0.278%.

Turning to `Cc1ccc(N2CN(CC(=O)Nc3ccccc3Cl)S(=O)(=O)c3cccnc32)cc1`, in assay [1], the haemolysis stood at 0.453%. Moreover, the inhibition is -17.7% (inactive) in [2]; -1.53% in assay [3]; 4.43% in [4]; -6.75% in [5]; -25.9% in assay [6]; -45.3% in assay [7]. The values for the inhibition in assay [8] and in assay [9] were -124% and 0.131%, respectively.

With `O=C(c1ccccc1)c1ccc(NS(=O)(=O)c2cccc(Cl)c2)cc1`, the haemolysis in assay [1] came to 0.625%. For the same molecule, the inhibition in assay [2] was 64.6%; in [3], 0.0647%; in assay [4], 80.1%; in [5], 15.2%; in assay [6], 86.3%; in assay [7] it was 4.05%. Moreover, the values for the inhibition in assay [8] and in assay [9] were -41.2% and -0.368%, respectively.

Regarding `COc1ccc(/C=C(\C#N)S(=O)(=O)c2ccccc2)cc1OC`, the haemolysis in assay [1] is 2.6%. Moreover, the inhibition in assay [2] is 16.3% (inactive); in assay [3], -0.352%; in [4] it was 12.6%; in [5] it was 0.595%; in [6], 3.58%; in assay [7], -0.135%. Moreover, the inhibition in assay [8] was -60.8%; in [9], -0.905%.

As to `N#Cc1c(NC[C@H]2CCCN2)nc2ccccc2c1C(F)(F)F`, the haemolysis in [1] was found to be 0.41%. Further, the inhibition in assay [2] was 99.7%; in assay [3] it was -0.31%; in assay [4], 53.6%; in assay [5], 9.76%; in assay [6] it was 17.7%; in [7], 12.8%. Moreover, the inhibition is -78.9% in [8] and -1.13% in assay [9].

For the molecule `CCOc1ccc2ncc(C#N)c(N3CCC(C(=O)NCc4ccccc4F)CC3)c2c1`, the haemolysis in [1] came to 0.211%. Besides, the inhibition is -21.2% (inactive) in assay [2]; -1.25% in [3]; 1% in [4]; -5.66% in assay [5]; -24% in assay [6]; -44.6% in [7]. Moreover, the inhibition in assay [8] was -38.3%; in [9], -0.367%.

For `NC(=O)C1CCN(c2nc(OCc3ccc(F)nc3)nc(N3CCn4c(nnc4C(F)(F)F)C3)n2)CC1`, the haemolysis in assay [1] was found to be 0.123%. The inhibition was 16.7% (inactive) in [2]; 1.56% in assay [3]; 11.7% in [4]; -4.58% in assay [5]; -3.54% in assay [6]; -2.57% in assay [7]. The inhibition in [8] is -84%; in assay [9] it was 0.0526%.

Consider `O=S(=O)(NC1(Cc2ccc(Cl)cc2Cl)CCC1)c1ccc(-c2nn[nH]n2)cc1`, for which the haemolysis in assay [1] was -0.271%. In addition, the inhibition in [2] was 17% (inactive); in [3], 0.393%; in assay [4], 65.8%; in [5], 22.7%; in assay [6], 22.2%; in [7], 0.135%. For the same molecule, the results for the inhibition in assay [8] and in [9] were -103% and -1.11%, respectively.

For the molecule `O=C(Nc1ccc(Oc2ccccc2)cc1)c1cccc(-c2nn[nH]n2)c1`, the haemolysis in assay [1] was 1.82%. The inhibition in assay [2] is 9.5% (inactive); in [3], 0.254%; in assay [4], 18.8%; in [5] it was -3.57%; in assay [6], 5.93%; in assay [7] it was -9.59%. In addition, the inhibition in [8] is -19%; in assay [9], -0.704%.

Take `O=S(=O)(Nc1ccc(Oc2ccccc2)cc1)c1cccc(C(F)(F)F)c1`: in [1], the haemolysis came to 1.23%. In addition, the inhibition in [2] was 81.9%; in assay [3], 0.528%; in [4], 67.9%; in [5] it was 59.2%; in assay [6] it was 90%; in assay [7], -5.41%. In addition, the inhibition in assay [8] was 25.3%; in assay [9], -0.452%.
